# In paper PMC11070930 (The Biochemical journal, 2024):
# Like-named read-outs stand apart in the source and are kept apart here.
# B1: 18-bp DNA duplex (dsDNA)
# DNA 1: GGGTTGCGGCCGCTTGGG
# DNA 2: CCCAAGCGGCCGCAACCC
# B2: 5-bp DNA duplex (dsDNA)
# DNA 1: CGACG
# DNA 2: CGTCG
# Tests used:
# [1] = target: T1, PARP1 (Homo sapiens, UniProt P09874); settings: allosteric-based classification reported earlier; cited from earlier work
# [2] = target: T1, PARP1; assay: PARP1 enzyme inhibition assay; type: biochemical; settings: for decrease in PARP1 inhibition potency compared to veliparib: relative to veliparib
# [3] = target: T2, PARP1 WT (UniProt P09874 1-1014); assay: fluorescence polarization
# [4] = target: T2, PARP1 WT; assay: fluorescence polarization; remark: listed apart in the source
# [5] = target: T2, PARP1 WT; assay: fluorescence polarization; remark: listed apart in the source
# [6] = target: T2, PARP1 WT; assay: fluorescence polarization; remark: listed apart in the source
# [7] = target: T2, PARP1 WT; assay: fluorescence polarization; remark: listed apart in the source
# [8] = target: T2, PARP1 WT; assay: fluorescence polarization; remark: listed apart in the source
# [9] = target: T2, PARP1 WT; assay: fluorescence polarization; remark: listed apart in the source
# [10] = target: T2, PARP1 WT; assay: fluorescence polarization; remark: listed apart in the source
# [11] = target: T2, PARP1 WT; assay: fluorescence polarization; remark: listed apart in the source
# [12] = target: T2, PARP1 WT; assay: fluorescence polarization; remark: listed apart in the source
# [13] = target: T2, PARP1 WT; assay: fluorescence polarization; remark: listed apart in the source
# [14] = target: T2, PARP1 WT; assay: fluorescence polarization; remark: listed apart in the source
# [15] = target: T2, PARP1 WT; assay: fluorescence polarization; remark: listed apart in the source
# [16] = target: PARP1 Zn1-Zn3 ΔZn2;PARP1 WGR-CAT ΔVE (Homo sapiens?;Homo sapiens?, UniProt P09874;P09874 1-366;518-1014, del97-206|del687-688); assay: X-ray crystallography
# [17] = read-out: PARP1 IC50, 10-point concentration-response curve, average of at least two independent experiments
molecule,measurement,setting,value
"NC(=O)c1cccc([C@@H]2O[C@H](COP(=O)(O)OP(=O)(O)OC[C@H]3O[C@@H](n4cnc5c(N)ncnc54)[C@H](O)[C@@H]3O)[C@@H](O)[C@H]2O)c1 [BAD, benzamide adenine dinucleotide]",allosteric PARPi type,[1],Type I
"NC(=O)c1cccc2[nH]c(-c3ccc(C(=O)N4CCN(c5ncc(C(=O)O)cn5)CC4)cc3)nc12 [Compound 7, Sodium 2-(4-(4-(4-carbamoyl-1H-benzo[d]imidazol-2-yl)benzoyl)piperazin-1-yl)pyrimidine-5-carboxylate]",IC50,[2],> 10 nM
same,inhibition at 0.01 µM,[2]; read-out: PARP1 inhibition at 10 nM,37%
"NC(=O)c1cccc2[nH]c(-c3cccc(C(=O)N4CCn5c(nnc5C(F)(F)F)C4)c3)nc12 [Compound 13, 2-(3-(3-(Trifluoromethyl)-5,6,7,8-tetrahydro-[1,2, 4]triazolo[4,3-a]pyrazine-7-carbonyl)phenyl)-1H-benzo[d]imidazole-4-carboxamide]",IC50,[2]; [17],25.4 nM
"NC(=O)c1cccc2[nH]c(-c3cccc(C(=O)N4CCN(c5nc6ccccc6[nH]5)CC4)c3)nc12 [Compound 9, 2-(3-(4-(1H-Benzo[d]imidazol-2-yl)piperazine-1-carbonyl)phenyl)-1H-benzo[d]imidazole-4-carboxamide]",IC50,[2],3.9 nM
NC(=O)c1cccc2cn(-c3ccc([C@@H]4CCCNC4)cc3)nc12 [niraparib],allosteric PARPi type,[1],Type III
"COC(=O)c1cnc(N2CCN(C(=O)c3ccc(-c4nc5c(C(N)=O)cccc5[nH]4)cc3)CC2)nc1 [UKTT15 (6), Methyl 2-(4-(4-(4-carbamoyl-1H-benzo[d]imidazol-2-yl)benzoyl)piperazin-1-yl)pyrimidine-5-carboxylate]",IC50,[2],2.8 nM
same,allosteric PARPi type,[1],Type I
CNCc1ccc(-c2[nH]c3cc(F)cc4c3c2CCNC4=O)cc1 [rucaparib],allosteric PARPi type,[1],Type III
"NC(=O)c1cccc2[nH]c(-c3cccc(C(=O)NCCc4nc5ccccc5[nH]4)c3)nc12 [Compound 11, 2-(3-((2-(1H-Benzo[d]imidazol-2-yl)ethyl)carbamoyl)phenyl)-1H-benzo[d]imidazole-4-carboxamide]",IC50,[2],121 nM
same,decrease in PARP1 inhibition potency compared to veliparib,[2],~ 100 fold
"NC(=O)c1cccc2[nH]c(-c3ccc(C(=O)N4CCN(c5ncccn5)CC4)cc3)nc12 [Compound 4, 2-(4-(4-(Pyrimidin-2-yl)piperazine-1-carbonyl)phenyl)-1H-benzo[d]imidazole-4-carboxamide]",IC50,[2],11.9 nM
same,decrease in PARP1 inhibition potency compared to veliparib,[2],approximately nine
"NC(=O)c1cccc2[nH]c(-c3ccc(C(=O)N4CCN(c5nc6ccccc6[nH]5)CC4)cc3)nc12 [Compound 8, 2-(4-(4-(1H-Benzo[d]imidazol-2-yl)piperazine-1-carbonyl)phenyl)-1H-benzo[d]imidazole-4-carboxamide]",IC50,[2],6.2 nM
"Cc1cc(N)c(NC(=O)c2cccc(-c3nc4c(C(N)=O)cccc4[nH]3)c2)cc1C [Compound 14, 2-(3-((2-Amino-4,5-dimethylphenyl)carbamoyl)phenyl)-1H-benzo[d]imidazole-4-carboxamide]",IC50,[2],17.3 nM
"NC(=O)c1cccc2[nH]c(-c3ccc(C(=O)NCCc4nc5ccccc5[nH]4)cc3)nc12 [Compound 10, 2-(4-((2-(1H-Benzo[d]imidazol-2-yl)ethyl)carbamoyl)phenyl)-1H-benzo[d]imidazole-4-carboxamide]",IC50,[2],3.1 nM
C[C@]1(c2nc3c(C(N)=O)cccc3[nH]2)CCCN1 [Veliparib],allosteric PARPi type,[1],Type III
"NC(=O)c1cccc2[nH]c(-c3cccc(C(=O)N4CCN(c5ncccn5)CC4)c3)nc12 [Compound 5, 2-(3-(4-(Pyrimidin-2-yl)piperazine-1-carbonyl)phenyl)-1H-benzo[d]imidazole-4-carboxamide]",IC50,[2],8.9 nM
Cl.Cl.Nc1ncnc2c1ncn2[C@@H]1O[C@H](C(=O)N2CCN(CC(=O)Nc3cccc4c3CNC4=O)CC2)[C@@H](O)[C@H]1O [EB-47],allosteric PARPi type,[1],Type I
"NC(=O)c1cccc2[nH]c(-c3ccc(C(=O)N4CCn5c(nnc5C(F)(F)F)C4)cc3)nc12 [Compound 12, 2-(4-(3-(Trifluoromethyl)-5,6,7,8-tetrahydro-[1,2, 4]triazolo[4,3-a]pyrazine-7-carbonyl)phenyl)-1H-benzo[d]imidazole-4-carboxamide]",IC50,[2]; [17],25.4 nM
B1,Kd,[3],41.7 ± 11.4 nM
same,Kd,[4],82.1 ± 1.8 nM
same,Kd,[5],11.8 ± 4.7 nM
same,Kd,[6],52.3 ± 3.2 nM
same,Kd,[7],62.2 ± 14.6 nM
same,Kd,[8],61.9 ± 14.4 nM
same,Kd,[9],4.5 ± 1.7 nM
same,Kd,[10],47.7 ± 5.4 nM
same,Kd,[11],112 ± 31.2 nM
same,Kd,[12],117 ± 16.8 nM
same,Kd,[13],210 ± 25 nM
same,Kd,[14],29 ± 5.2 nM
same,Kd,[15],61.7 ± 25.3 nM
B2,binding result,[16],binds
